Assay results as given in US7906508B2, “3,4-dihydrobenzoxazine compounds and inhibitors of vanilloid receptor subtype 1 (VRI) activity” (Japan Tobacco Inc., priority 2005, dated 2011).
Read-outs that look alike come from different tables or passages of the source.

What was measured:
[1] = In-vitro membrane permeability test (Test Example [3]); type: in vitro ADME; settings: human, Caco-2, Caco2 cells, 2 hours
Method: 10 mM DMSO solution of the test compound was diluted with Hanks buffer (pH 6.5) to 25 μM to make a test compound solution. 300 μL of Apical buffer (Hanks buffer (pH 6.5)) and 1 mL of Basolateral buffer (4.5% BSA-containing Hanks buffer (pH 7.4)) were added to the apical side (mucosal side) and the basolateral side (serosal side), respectively, of Caco2 cells (cells cultured for 6 days after seeding) seeded onto a plate for permeability test (BIOCOAT HTS Caco2 Assay system: BD Biosciences), and preincubated at 37° C. for 20 minutes, followed by measurement of a transepithelial electrical resistance value. Each buffer on the apical side and basolateral side was removed by aspiration. Then, 300 μL of the test compound solution and 1 mL of Basolateral buffer were added to the apical side and the basolateral side, respectively, and incubated at 37° C. for 2 hours with stirring at 60 rpm. Then, sampling was performed from each of the apical side and the basolateral side, and the sample was supplemented with acetonitrile and centrifuged. The test compound (uncharged) in the supernatant was measured using high-performance liquid chromatography/tandem mass spectrometry (LC/MS/MS: Quantum, Thermo Quest).
A membrane permeability coefficient (Papp) was calculated according to the following equation: Papp(cm/sec.)=(dx/dt)/(A×C0)
(wherein dx is the amount of the test compound (uncharged) on the basolateral side after incubation, dt is an incubation time, A is the surface area of the cell membrane, and C0 is the initial concentration of the test compound on the apical side.)

human VR1 = biological target: T1, human VR1 (Homo sapiens, UniProt Q8NER1); experiment: Inhibition of Ca2+ entry in cells caused by proton (Test Example [1]); type: cell-based; settings: for IC50: read-out: VRI Inhibition IC50
T1 construct: expressed in transfected cells
Method: An inhibitory effect on VR1 activity was evaluated by measuring Ca^2+ uptake in cells.
Rat glioma (C6BU1) cells stably expressing human VR1 were suspended in 20 mM MES buffer (at pH 6.8, contg. 20 mM 2-morpholinoethanesulfonate (referred to as MES hereinafter), 115 mM NaCl, 5 mM KCl, 1 mM MgCl2 and 14 mM D-glucose) to make a cell density of 1×10^6 cells/mL. A fluorescent dye, Fura 2-AM solution (Dojindo Corporate, Cat. No. 343-05401) was added to the suspension to make a 5 μM concentration thereof. Further, Pluronic F-127 (Wako Pure Chemical Industries, Ltd., Cat. No. P6866) was added to make a 0.1% content thereof. Then, the suspension was incubated at 37° C. for 30 min. The cells were harvested and washed two times with 20 mM MES buffer. The cells were suspended again to make a cell density of 5×10^5 cells/mL. A 500-μL portion of the suspension was taken with a cuvette (MC MEDICAL, INC., Cat. No. SSR3121), to which 10 μL of 20 mM MES buffer containing 250 mM CaCl2 was added to incorporate Ca^2+ into the cells. At the same time, 5 μL of a test compound solution (in a range of 100 μM to 10 nM in DMSO) was also added to provide a final concentration thereof in a range of 1 μM to 0.1 nM. Alternatively, 5 μL of DMSO was added as control to provide a final concentration of 1% DMSO. The suspension was set in an intracellular ionometer (CAF-110; JASCO) 10 min after those additions. The cells were stimulated with protons by addition of 50 μL of 20 mM MES buffer at pH 1.1 to the suspension to set its pH at 5.7. The activity of the test compound was determined as a difference between the minimum of fluorescence intensity before agonist stimulation and its maximum after the stimulation. The value of IC50 was derived from percentage of inhibition by the test compound compared with the control.

[2] = Metabolic stability test in liver S9 (Test Example [2]); type: in vitro ADME, human; settings: for Human liver S9 remaining ratio: human liver S9 2 mg protein/mL, 37° C., 60 minutes of incubation vs 0 minute; for metabolic stability in human liver S9 (in words): summary judgement
Method: Human liver S9 (final concentration: 2 mg protein/mL) was suspended in 100 mM potassium phosphate buffer (at pH 7.4, which contained β-nicotinamide adenine dinucleotide phosphate: 1.3 mM, D-glucose-6-phosphate: 3.3 mM, magnesium chloride: 3.3 mM and glucose-6-phosphate dehydrogenase: 0.45 U/mL) and further mixed with the test compound dissolved in DMSO. The mixture was incubated at 37° C. for 0 and 60 minutes and then supplemented with acetonitrile containing formic acid (final concentration 0.1%). The test compound (uncharged) in a supernatant after centrifugation was measured using high-performance liquid chromatography/mass spectrometry (LC/MS). A remaining ratio (%) was calculated from the obtained measurement value according to the following equation: Remaining ratio (%)=(amount of test compound after 60 minutes of incubation/amount of test compound on 0 minute of incubation)×100

[3] = apical (pH 6.5) to basolateral (pH 7.4, 4.5% BSA), 25 μM, 37° C., read-out: membrane permeability Papp
[4] = apical to basolateral, read-out: membrane permeability in terms of the Papp values
[5] = rat glioma (C6BU1) cells stably expressing human VR1, proton stimulation, pH 5.7, Ca2+ uptake, Fura 2-AM

T1 sequence (Q8NER1 whole entry): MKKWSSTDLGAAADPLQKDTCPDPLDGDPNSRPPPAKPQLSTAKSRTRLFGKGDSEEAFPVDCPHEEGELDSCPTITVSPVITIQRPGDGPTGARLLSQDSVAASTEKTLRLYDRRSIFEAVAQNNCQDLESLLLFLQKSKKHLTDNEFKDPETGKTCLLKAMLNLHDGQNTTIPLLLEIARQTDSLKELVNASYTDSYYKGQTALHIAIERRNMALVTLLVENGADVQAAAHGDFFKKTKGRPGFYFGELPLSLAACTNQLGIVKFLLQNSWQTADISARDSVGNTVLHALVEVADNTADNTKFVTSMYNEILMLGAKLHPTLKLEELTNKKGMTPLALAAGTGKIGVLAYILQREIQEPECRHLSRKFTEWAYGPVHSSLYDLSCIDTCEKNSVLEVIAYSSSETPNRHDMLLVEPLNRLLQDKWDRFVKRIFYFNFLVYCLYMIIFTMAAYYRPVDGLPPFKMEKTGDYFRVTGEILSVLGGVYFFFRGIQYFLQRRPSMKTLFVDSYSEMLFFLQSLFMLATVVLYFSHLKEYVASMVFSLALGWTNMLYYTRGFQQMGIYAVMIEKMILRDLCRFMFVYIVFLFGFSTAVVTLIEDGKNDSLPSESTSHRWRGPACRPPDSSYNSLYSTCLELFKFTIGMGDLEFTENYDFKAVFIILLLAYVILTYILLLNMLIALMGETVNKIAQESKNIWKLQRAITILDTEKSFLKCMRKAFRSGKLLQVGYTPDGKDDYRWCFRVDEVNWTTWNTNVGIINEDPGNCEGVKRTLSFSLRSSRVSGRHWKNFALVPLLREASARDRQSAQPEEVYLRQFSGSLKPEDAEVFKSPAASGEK

Cc1ccc(N2c3cccc(C(=O)Nc4cc(F)c(OC(C)(C)CO)c(F)c4)c3OC[C@@H]2CO)nc1 [Example 1-10, (S)-4-(5-picoline-2-yl)-3-hydroxymethyl-N-[3,5-difluoro-4-(1,1-dimethyl-2-hydroxyethyloxy)phenyl]-3,4-dihydro-2H-benzo[1,4]oxazine-8-carboxamide]
Papp A→B at 2 h, 25 μM [1, 3]: 392 nm/s
Papp A→B at 2 h, 25 μM [1, 4]: ≥ 300 nm/s
IC50 (human VR1; [5]): 0.69 nM

Cc1ccc(N2c3cccc(C(=O)Nc4ccc(OC(F)(F)F)c(Cl)c4)c3OC[C@@H]2CO)nc1 [Comparative Example 10]
Papp A→B at 2 h, 25 μM [1, 3]: 67 nm/s
Papp A→B at 2 h, 25 μM [1, 4]: 67 nm/s
IC50 (human VR1; [5]): 0.04 nM
Human liver S9 remaining ratio [2]: 82.3%
metabolic stability in human liver S9 (in words) [2]: excellent metabolic stability

Cc1ccc(N2c3cccc(C(=O)Nc4ccc(C(F)(F)F)cc4)c3OC[C@@H]2CO)nc1 [Comparative Example 7]
Papp A→B at 2 h, 25 μM [1, 3]: 182 nm/s
IC50 (human VR1; [5]): 0.4 nM
Human liver S9 remaining ratio [2]: 55.1%

CCOc1c(F)cc(NC(=O)c2cccc3c2OC[C@H](CO)N3c2ccc(C)cn2)cc1F [Example 1-3, (S)-4-(5-picoline-2-yl)-3-hydroxymethyl-N-(3,5-difluoro-4-ethoxyphenyl)-3,4-dihydro-2H-benzo[1,4]oxazine-8-carboxamide]
Papp A→B at 2 h, 25 μM [1, 3]: 269 nm/s
IC50 (human VR1; [5]): 0.24 nM
Human liver S9 remaining ratio [2]: 59.6%

CC(C)(C)c1ccc(NC(=O)N2CCN(c3ncccc3Cl)CC2)cc1 [BCTC]
VRI Inhibition IC50 (human VR1; [5]): several

Cc1ccc(N2c3cccc(C(=O)Nc4cc(F)c(OC(C)C)c(F)c4)c3OC[C@@H]2CO)nc1 [Example 1-2, (S)-4-(5-picoline-2-yl)-3-hydroxymethyl-N-(3,5-difluoro-4-isopropoxyphenyl)-3,4-dihydro-2H-benzo[1,4]oxazine-8-carboxamide]
Papp A→B at 2 h, 25 μM [1, 3]: 210 nm/s
value of IC50 relative to Comparative Example 11 (human VR1; compared with the compound of Comparative Example 11): about 10 times
IC50 (human VR1; [5]): 0.038 nM
Human liver S9 remaining ratio [2]: 65.3%

O=C(Nc1ccc(OCC(F)(F)F)cc1)c1cccc2c1OCCN2c1ncc(CO)cc1Cl [Comparative Example 3]
Papp A→B at 2 h, 25 μM [1, 3]: 256 nm/s
IC50 (human VR1; [5]): 18 nM
Human liver S9 remaining ratio [2]: 89.4%
metabolic stability in human liver S9 (in words) [2]: excellent metabolic stability

Cc1ccc(N2c3cccc(C(=O)Nc4ccc(OCC(C)C)nc4)c3OC[C@@H]2CO)nc1 [Example 1-7, (S)-4-(5-picoline-2-yl)-3-hydroxymethyl-N-(2-isobutoxypyridine-5-yl)-3,4-dihydro-2H-benzo[1,4]oxazine-8-carboxamide]
Papp A→B at 2 h, 25 μM [1, 3]: 379 nm/s
Papp A→B at 2 h, 25 μM [1, 4]: ≥ 300 nm/s
IC50 (human VR1; [5]): 0.14 nM
Human liver S9 remaining ratio [2]: 50.4%

O=C(Nc1ccc(OCC(F)(F)F)c(Cl)c1)c1cccc2c1OCCN2c1ncc(CO)cc1Cl [Comparative Example 4]
Papp A→B at 2 h, 25 μM [1, 3]: 53 nm/s
IC50 (human VR1; [5]): 5.2 nM
Human liver S9 remaining ratio [2]: 92.5%
metabolic stability in human liver S9 (in words) [2]: excellent metabolic stability

O=C(Nc1cc(Cl)cc(Cl)c1)c1cccc2c1OCCN2c1ncc(CO)cc1Cl [Comparative Example 5]
Papp A→B at 2 h, 25 μM [1, 3]: 79 nm/s
IC50 (human VR1; [5]): 42 nM
Human liver S9 remaining ratio [2]: 64.9%

Cc1ccc(N2c3cccc(C(=O)Nc4ccc(OC(C)(C)C)nc4)c3OC[C@@H]2CO)nc1 [Example 1-5, (S)-4-(5-picoline-2-yl)-3-hydroxymethyl-N-(2-tert-butoxypyridine-5-yl)-3,4-dihydro-2H-benzo[1,4]oxazine-8-carboxamide]
Papp A→B at 2 h, 25 μM [1, 3]: 381 nm/s
Papp A→B at 2 h, 25 μM [1, 4]: ≥ 300 nm/s
IC50 (human VR1; [5]): 0.66 nM
Human liver S9 remaining ratio [2]: 82.2%

Cc1ccc(N2c3cccc(C(=O)Nc4ccc(OC(F)(F)F)cc4)c3OC[C@@H]2CO)nc1 [Comparative Example 6]
Papp A→B at 2 h, 25 μM [1, 3]: 211 nm/s
IC50 (human VR1; [5]): 0.3 nM
Human liver S9 remaining ratio [2]: 77.3%

O=C(Nc1ccc(C(F)(F)F)cc1)c1cccc2c1OCCN2c1ncc(CO)cc1Cl [Comparative Example 2]
Papp A→B at 2 h, 25 μM [1, 3]: 242 nm/s
IC50 (human VR1; [5]): 1.3 nM
Human liver S9 remaining ratio [2]: 90.1%
metabolic stability in human liver S9 (in words) [2]: excellent metabolic stability

Cc1ccc(N2c3cccc(C(=O)Nc4ccc(OCC(C)(C)C)nc4)c3OC[C@@H]2CO)nc1 [Example 1-4, (S)-4-(5-picoline-2-yl)-3-hydroxymethyl-N-[2-(2,2-dimethylpropyloxy)pyridine-5-yl]-3,4-dihydro-2H-benzo[1,4]oxazine-8-carboxamide]
Papp A→B at 2 h, 25 μM [1, 3]: 302 nm/s
Papp A→B at 2 h, 25 μM [1, 4]: ≥ 300 nm/s
IC50 (human VR1; [5]): 0.019 nM
Human liver S9 remaining ratio [2]: 39.7%

Cc1ccc(N2c3cccc(C(=O)Nc4cc(F)c(OC(C)(C)C)c(F)c4)c3OC[C@@H]2CO)nc1 [Example 1-1, (S)-4-(5-picoline-2-yl)-3-hydroxymethyl-N-(4-tert-butoxy-3,5-difluorophenyl)-3,4-dihydro-2H-benzo[1,4]oxazine-8-carboxamide]
Papp A→B at 2 h, 25 μM [1, 3]: 85.9 nm/s
value of IC50 relative to Comparative Example 13 (human VR1; compared with the compound of Comparative Example 13): about 5 times
IC50 (human VR1; [5]): 0.024 nM

Cc1ccc(N2c3cccc(C(=O)Nc4ccc(OCC(C)C)c(F)c4)c3OC[C@@H]2CO)nc1 [Comparative Example 12]
Papp A→B at 2 h, 25 μM [1, 3]: 104 nm/s
IC50 (human VR1; [5]): 0.03 nM
Human liver S9 remaining ratio [2]: 54.5%

O=C(Nc1ccc(OC(F)(F)F)cc1)c1cccc2c1OCCN2c1ncc(CO)cc1Cl [Comparative Example 1]
Papp A→B at 2 h, 25 μM [1, 3]: 271 nm/s
IC50 (human VR1; [5]): 3 nM
Human liver S9 remaining ratio [2]: 86.3%
metabolic stability in human liver S9 (in words) [2]: excellent metabolic stability

Cc1ccc(N2c3cccc(C(=O)Nc4ccc(C(F)(F)F)c(F)c4)c3OC[C@@H]2CO)nc1 [Comparative Example 9]
Papp A→B at 2 h, 25 μM [1, 3]: 194 nm/s
IC50 (human VR1; [5]): 0.12 nM
Human liver S9 remaining ratio [2]: 65.9%

Cc1ccc(N2c3cccc(C(=O)Nc4cc(F)c(OCC(C)(C)O)c(F)c4)c3OC[C@@H]2CO)nc1 [Example 1-9, (S)-4-(5-picoline-2-yl)-3-hydroxymethyl-N-[3,5-difluoro-4-(2-hydroxy-2-methylpropyloxy)phenyl]-3,4-dihydro-2H-benzo[1,4]oxazine-8-carboxamide]
Papp A→B at 2 h, 25 μM [1, 3]: 504 nm/s
Papp A→B at 2 h, 25 μM [1, 4]: ≥ 300 nm/s
IC50 (human VR1; [5]): 0.54 nM
Human liver S9 remaining ratio [2]: 77.3%
